How the values were obtained:
LXRα = molecular target: T1, LXRα (Homo sapiens, UniProt Q13133); settings: cited from earlier work
T1 sequence (Q13133 1-447): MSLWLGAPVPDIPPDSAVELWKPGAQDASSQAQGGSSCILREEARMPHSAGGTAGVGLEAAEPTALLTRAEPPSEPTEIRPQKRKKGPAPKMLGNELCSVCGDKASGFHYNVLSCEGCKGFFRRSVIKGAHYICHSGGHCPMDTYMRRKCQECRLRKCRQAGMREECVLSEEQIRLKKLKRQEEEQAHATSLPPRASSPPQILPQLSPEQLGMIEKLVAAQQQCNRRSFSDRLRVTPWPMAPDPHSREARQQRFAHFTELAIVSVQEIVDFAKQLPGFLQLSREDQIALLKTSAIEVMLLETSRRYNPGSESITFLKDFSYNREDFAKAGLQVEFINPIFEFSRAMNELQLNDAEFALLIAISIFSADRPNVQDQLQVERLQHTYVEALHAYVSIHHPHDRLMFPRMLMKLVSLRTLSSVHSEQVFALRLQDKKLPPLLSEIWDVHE

[1] = test system: B16F10 mouse melanoma cells; test: Subcutaneous B16F10 tumor growth in C57BL/6 mice; format: in vivo; settings: for melanoma primary tumor growth in vivo (B16F10): chow, WO-2010-0138598 Ex. 9 10 or 100 mg/kg/day, SB742881 100 mg/kg/day
Procedure: FIG. 4. Therapeutic LXR Activation Inhibits Melanoma Tumor Growth. […] Representative tumor images shown correspond to tumors extracted at the final day (d12). n=10-18 (A), 8-10 (B). (C-E) Primary tumor growth by 1×10^6 MeWo (C), […] SK-Mel-334.2 (D), and 2×10^6 SK-Mel-2 (E) human melanoma cells subcutaneously injected into immunocompromised mice. […] Tumor images shown correspond to last day of measurements. n=6-34 (C), 8 (D), 5 (E). (F) 5×10^4 B16F10 cells were injected subcutaneously into C57BL/6-WT mice. Upon tumor growth to 150 mm^3, mice were fed continuously with a control chow or a chow containing GW3965 (150 mg/kg), and tumor growth was measured daily. n=6-13. […] Tumor volume was calculated as (small diameter)^2×(large diameter)/2. […] Scale bars, 5 mm (A-D), 50 μm (J, K), 25 μm (L).
The mice were palpated daily for tumor formation and after detection of tumors measuring […] in volume, the mice were assigned to a control chow or a chow containing each respective LXR agonist: LXR-623 (20 mg/kg/day), WO-2007-002563 Ex. 19 (100 mg/kg/day), WO-2010-0138598 Ex. 9 (10 mg/kg/day or 100 mg/kg/day), or SB742881 (100 mg/kg/day). The LXR drug compounds were formulated in the mouse chow by Research Diets, Inc. Tumor dimensions were measured using digital calipers, and tumor volume was calculated as (small diameter)^2×(large diameter)/2.

[2] = test system: MeWo, HT-144, SK-Mel-2, SK-Mel-334.2 human melanoma cells; test: Cell invasion assay (trans-well matrigel); format: cell-based; settings: 1 μM, 72 hours; for inhibiting cancer progression phenotypes (cell invasion, endothelial recruitment): MeWo cells, versus lower potency LXR agonists
Text: FIG. 2. Activation of LXRβ Signaling Suppresses Melanoma Cell Invasion and Endothelial Recruitment. (A) Heat-map depicting microarray-based expression levels of LXR and RXR isoforms in the NCI-60 melanoma cell line collection. The heat map for these genes is extracted from the larger nuclear hormone receptor family heat map (FIG. 3). Color-map key indicates the change in standard deviations for the expression value of each receptor relative to the average expression value of all microarray-profiled genes (>39,000 transcript variants) in each cell line. (B) Cell invasion by 1×10^5 MeWo, 5×10^4 HT-144, 5×10^5 SK-Mel-2, and 5×10^4 SK-Mel-334.2 human melanoma cells. Cells were treated with DMSO, GW3965, T0901317, or Bexarotene at 1 μM for 72 hours and subjected to a trans-well matrigel invasion assay. n=4-8. (C) 5×10^4 MeWo, HT-144, SK-Mel-2, and SK-Mel-334.2 human melanoma cells were tested for their ability to recruit 1×10^5 endothelial cells in a trans-well migration assay, following treatment of the melanoma cells with DMSO, GW3965, T0901317, or Bexarotene at 1 μM for 72 hours. n=4-8. […] Scale bar, 50 μm. *p<0.05, **p<0.01, ***p<0.001, ****p<0.0001.
The cell invasion assay was performed as previously described in detail (Pencheva et al., 2012) using a trans-well matrigel invasion chamber system (354480, BD Biosciences). In brief, various melanoma cells were cultured in the presence of DMSO, GW3965, T0901317, or Bexarotene at 1 μM for 56 hours, after which melanoma cells were switched to starvation media (0.2% FBS) for 16 hours in the presence of each drug. Following starvation, cells were seeded into matrigel-coated trans-well inserts, and the invasion assay was allowed to proceed for 24 hours at […]. For ApoE antibody neutralization experiments, 40 μg/mL 1 D7 anti-ApoE blocking antibody (Heart Institute, University of Ottawa, Ottawa, Canada) or […] anti-IgG control antibody (AB-108-C, R&D Systems, Minneapolis, Minn.) was added to each trans-well insert at the start of the assay.
The cells were then serum starved for 16 hours in 0.2% FBS media in the presence of each corresponding drug or DMSO. Following serum starvation, the cells were subjected to the trans-well invasion assay using a matrigel invasion chamber system (354480, BD Biosciences). Invasion chambers were pre-equilibrated prior to the assay by adding 0.5 mL of starvation media to the top and bottom wells. Meanwhile, cancer cells were trypsinized and viable cells were counted using trypan blue. Cancer cells were then resuspended at a concentration of 2×10^5 cells/1 mL starvation media, and 0.5 mL of cell suspension, containing 1×10^5 cells, was seeded into each trans-well. The invasion assay was allowed to proceed for 24 hours at 37° C. […] Following fixation, the inserts were washed in PBS, cut out, and mounted onto slides using VectaShield mounting medium containing DAPI nuclear stain (H-1000, Vector Laboratories). The basal side of each insert was imaged using an inverted fluorescence microscope (Zeiss Axiovert 40 CFL) at 5× magnification, and the number of DAPI-positive cells was quantified using ImageJ.

ApoE expression = ApoE expression by qRT-PCR in human melanoma cells
Procedure: (A-B) Parental MeWo cells were incubated in the presence of DMSO or GW3965 at the indicated concentrations. After 48 hours, total RNA was extracted, and the levels of ApoE (A) and DNAJA4 (B) were determined by qRT-PCR. n=3. (C) Cell invasion by 1×10^5 parental MeWo cells pre-treated with GW3965 or DMSO for 48 hours. n=6-7. p-values based on a one-sided student's t-test. […] (D) Endothelial recruitment by 5×10^4 parental MeWo cells pre-treated with GW3965 or DMSO for 48 hours. n=6-7. p-values based on a one-sided student's t-test. (E) Mice were fed with grain-based chow diet containing GW3965 (20 mg/kg) or a control diet. After 10 days, 4×10^4 parental MeWo cells were tail-vein injected into mice, and the mice were continuously fed with GW3965-containing chow or a control diet throughout the experiment.
(A-C) MeWo (A), HT-144 (B), and WM-266-4 (C) human melanoma cells were treated with GW3965 or T0901317 at the indicated concentrations for 48 hours, and the expression levels of ApoE were analysed by qRT-PCR. n=3. (D) Extracellular ApoE protein levels, quantified by ELISA, in serum-free conditioned media collected from HT-144 human melanoma cells treated with DMSO, GW3965, or T0901317 at 1 μM for 72 hours. n=3-4. […] (I-J) Relative ApoE expression, quantified by qRT-PCR, in MeWo (I) and HT-144 (J) cells transduced with a control shRNA or shRNAs targeting LXRα or LXRβ and subsequently treated with DMSO, GW3965, or T0901317 at 1 μM for 48 hours. n=3-9. (K) Extracellular ApoE protein levels, measured by ELISA, in serum-free conditioned media harvested from HT-144 cells transduced with a control shRNA or an shRNA targeting LXRα or LXRβ and treated with DMSO or GW3965 at 1 μM for 72 hours. n=3.
RNA was extracted from whole cell lysates using the Total RNA Purification Kit (17200, Norgen, Thorold, Canada). 600 ng of total RNA was then reverse transcribed into cDNA using the cDNA First-Strand Synthesis Kit (18080-051, Invitrogen), and quantitative real-time PCR amplification was performed as previously described (Pencheva et al., 2012) using an ABI Prism 7900HT Real-Time PCR System (Applied Biosystems, Austin, Tex.). […]
For every sample, 600 ng of RNA was reverse transcribed into cDNA using the cDNA First-Strand Synthesis kit (Invitrogen). […] Each reaction was carried out in quadruplicates, and ApoE mRNA expression levels were measured by quantitative real-time PCR amplification using an ABI Prism 7900HT Real-Time PCR System (Applied Biosystems). The relative ApoE expression was determined using the ΔΔCt method.

ApoE promoter = ApoE promoter activity assay (luciferase, ME.1/ME.2); format: cell-based, human; settings: 1 μM
Text: FIG. 11. LXRβ Activation Suppresses Melanoma Invasion and Endothelial Recruitment by Transcriptionally Enhancing Melanoma-Cell ApoE Expression. […] Scale bar, 50 μm.
The ApoE promoter, consisting of a sequence spanning 980 base pairs upstream and 93 base pairs downstream of the ApoEgene, was cloned into a pGL3-Basic vector (E1751, Promega Corporation, Madison, Wis.) upstream of the firefly luciferase gene using NheI and SacI restriction enzymes. Then, multi-enhancer elements 1 (ME.1) and 2 (ME.2) were cloned directly upstream of the ApoE promoter using MluI and […] restriction enzymes. To assess ApoE promoter- and ME.1/ME.2-driven transcriptional activation by LXR agonists, 5×10^4 MeWo cells were seeded into a 24-well plate. […] To assess transcriptional activation by LXRα or LXRβ, 5×10^4 MeWo cells expressing a control shRNA or shRNA targeting LXRα or LXRβ were seeded into a 24-well plate. […] After 24 hours, cells were lysed, and cell lysate was analyzed for firefly and renilla luciferase activity using the Dual Luciferase Assay System (E1960, Promega) and a Bio-Tek Synergy NEO Microplate Reader. Firefly luciferase signal was normalized to renilla luciferase signal and all data are expressed relative to the luciferase activity ratio measured in the DMSO-treated control cells.

SMILES	EC50 (LXRα) [nM]	melanoma primary tumor growth in vivo (B16F10) [1]	inhibiting cancer progression phenotypes (cell invasion, endothelial recruitment) [2]	potency of inducing ApoE expression in vitro (ApoE expression)	primary tumor growth in vivo (FIG. 4) ([1]; mouse, in vivo)	ability to suppress invasion and endothelial recruitment upon knockdown of melanoma LXRβ, but not LXRα ([2]; MeWo, HT-144)	ability to upregulate ApoE transcription and protein expression upon melanoma cell depletion of LXRβ, but not LXRα (ApoE promoter)
CC(C)(O)c1cn(-c2ccc(-c3cccc(S(C)(=O)=O)c3)cc2)c(C(C)(C)c2ccccc2Cl)n1 [Compound 113]	101 to 1000						
CC(C)(O)c1cn(-c2ccc(-c3cc(F)c(CO)c(S(C)(=O)=O)c3)cc2F)c(C(C)(C)c2c(Cl)cccc2Cl)n1 [Compound 112]		significantly inhibited	more effective	potently induce			
CC(CCOc1cccc(CC(=O)O)c1)N(Cc1cccc(C(F)(F)F)c1Cl)CC(c1ccccc1)c1ccccc1 (centres unmarked) [SB742881 109]		significantly inhibited	more effective	potently induce			
O=S(=O)(c1ccccc1)N(CC(F)(F)F)c1ccc(C(O)(C(F)(F)F)C(F)(F)F)cc1 [TO901317 110]				potently induce	inhibit	abrogated	abrogated

— US20190125745A1, “TREATMENT AND DIAGNOSIS OF CANCER” (Rgenix, Inc., priority 2014, published 2019)
